Measurements from BindingDB's records for doi:10.1016/j.bmcl.2008.07.062 (The Scripps Research Institute, 2008).

What was measured:
[1] = Inhibition of Blk expressed in mouse BAF3 cells assessed as cytotoxicity
[2] = Inhibition of JAK3 expressed in mouse BAF3 cells assessed as cytotoxicity

With `C=CC(=O)Nc1ccc2ncnc(Nc3cccc(Br)c3)c2c1` the IC50 [1] was > 10 µM and the IC50 [2] was > 10 µM.
